According to patent publication US20260317324A1, “BIFUNCTIONAL COMPOUNDS FOR DEGRADING BRAF VIA UBIQUITIN PROTEOSOME PATHWAY” (Nurix Therapeutics, Inc., priority 2023, published 2026):

Columns and labels:
Type in all cases: cell-based
[1] = biological target: T1, BRAF D594G (Homo sapiens, UniProt P15056, D594G); assay: BRAF HiBiT degradation assay, C-terminal HiBiT-tagged BRAF D594G overexpressed in HCT-116 BRAF−/− cells (clone 63), Nano-Glo HiBiT Lytic assay
T1 construct: Horizon Discovery (HCT-116 BRAF−/− cells); host or cells: HCT-116 BRAF−/− cells, clone 63, lentiviral transduction
T1 sequence (P15056 whole entry D594G): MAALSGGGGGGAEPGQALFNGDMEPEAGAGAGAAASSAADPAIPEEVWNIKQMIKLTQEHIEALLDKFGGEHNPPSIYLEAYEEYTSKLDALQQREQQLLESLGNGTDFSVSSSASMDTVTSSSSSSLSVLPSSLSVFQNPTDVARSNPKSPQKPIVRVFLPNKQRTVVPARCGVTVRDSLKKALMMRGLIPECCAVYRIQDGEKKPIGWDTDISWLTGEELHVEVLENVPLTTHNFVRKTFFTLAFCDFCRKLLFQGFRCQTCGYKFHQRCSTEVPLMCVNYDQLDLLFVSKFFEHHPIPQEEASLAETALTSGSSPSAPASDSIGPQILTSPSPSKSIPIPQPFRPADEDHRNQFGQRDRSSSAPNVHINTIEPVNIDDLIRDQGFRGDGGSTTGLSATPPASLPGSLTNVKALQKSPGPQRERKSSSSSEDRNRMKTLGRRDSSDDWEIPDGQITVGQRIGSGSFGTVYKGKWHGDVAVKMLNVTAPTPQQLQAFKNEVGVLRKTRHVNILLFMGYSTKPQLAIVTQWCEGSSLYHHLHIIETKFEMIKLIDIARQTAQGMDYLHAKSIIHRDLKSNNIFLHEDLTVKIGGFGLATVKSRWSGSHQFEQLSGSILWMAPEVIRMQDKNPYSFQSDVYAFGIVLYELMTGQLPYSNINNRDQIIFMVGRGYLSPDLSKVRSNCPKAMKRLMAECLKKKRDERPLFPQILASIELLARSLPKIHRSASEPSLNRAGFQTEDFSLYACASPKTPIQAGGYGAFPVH
Summary of the method: (§1)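 Degradation assay in HCT-116 BRAF−/− cells carrying lentiviral HiBiT-tagged mutant BRAF. The readout is % protein remaining across 1 μM to 0.01 nM compound, and DC50 marks 50% remaining.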

[2] = biological target: T2, BRAF V600E (Homo sapiens, UniProt P15056, V600E); assay: BRAF HiBiT degradation assay, C-terminal HiBiT-tagged BRAF V600E A375 cells (clone 1F10), Nano-Glo HiBiT Lytic assay; conditions: for Dmax: A-375
T2 construct: endogenous C-terminal HiBiT fusion tag on BRAF V600E allele; endogenous in cells; host or cells: A375 clone 1F10 (CRISPR-Cas9 knock-in of the HiBiT tag; parental A375 from ATCC)
T2 sequence (P15056 whole entry V600E, the tested form may be a part): as the sequence (P15056 whole entry D594G) above, with G594D, V600E counted along it
Summary of the method: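 Using CRISPR-engineered A375 cells that carry a C-terminal HiBiT tag on endogenous BRAF V600E, remaining protein was quantified by lytic luminescence relative to DMSO-treated cells, with wildtype A375 as the background control. DC50 denotes the concentration giving 50% degradation.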

[3] = biological target: T3, BRAF G466V (Homo sapiens, UniProt P15056, G466V); assay: BRAF HiBiT degradation assay, C-terminal HiBiT-tagged BRAF G466V overexpressed in HCT-116 BRAF−/− cells (clone 8), Nano-Glo HiBiT Lytic assay
T3 construct: Horizon Discovery (HCT-116 BRAF−/− cells); host or cells: HCT-116 BRAF−/− cells, clone 8, lentiviral transduction
T3 sequence (P15056 whole entry G466V): as the sequence (P15056 whole entry D594G) above, with G466V, G594D counted along it
Summary of the method: as §1

[4] = biological target: T4, BRAF G469A (Homo sapiens, UniProt P15056, G469A); assay: BRAF HiBiT degradation assay, C-terminal HiBiT-tagged BRAF G469A overexpressed in HCT-116 BRAF−/− cells (clone 34), Nano-Glo HiBiT Lytic assay
T4 construct: Horizon Discovery (HCT-116 BRAF−/− cells); host or cells: HCT-116 BRAF−/− cells, clone 34, lentiviral transduction
T4 sequence (P15056 whole entry G469A): as the sequence (P15056 whole entry D594G) above, with G469A, G594D counted along it
Summary of the method: as §1

[5] = BRAF D594G, DC50 at 50%: fitted conc. at Y=50
[6] = HCT-116, BRAF D594G, percentage protein degraded at maximal compound effect relative to DMSO
[7] = A375 (BRAF V600E), DC50 at 50%: fitted conc. at Y=50
[8] = A375 (BRAF V600E), percentage protein degraded at maximal compound effect relative to DMSO
[9] = BRAF G466V, DC50 at 50%: fitted conc. at Y=50
[10] = HCT-116, BRAF G466V, percentage protein degraded at maximal compound effect relative to DMSO
[11] = Class 2, BRAF G469A, DC50 at 50%: fitted conc. at Y=50
[12] = HCT-116, Class 2, BRAF G469A, percentage protein degraded at maximal compound effect relative to DMSO
[13] = BRAF D594G (Class 3), HCT-116 BRAF−/− cells, DC50 at 50% degradation
[14] = BRAF D594G (Class 3), HCT-116 BRAF−/− cells, observed Dmax relative to DMSO control
[15] = A375 (BRAF V600E, Class 1), DC50 at 50% degradation
[16] = A375 (BRAF V600E, Class 1), observed Dmax, % protein degraded relative to DMSO control
[17] = BRAF G466V (Class 3), HCT-116 BRAF−/− cells, DC50 at 50% degradation
[18] = BRAF G466V (Class 3), HCT-116 BRAF−/− cells, observed Dmax relative to DMSO control
[19] = BRAF G469A (Class 2), HCT-116 BRAF−/− cells, DC50 at 50% degradation
[20] = BRAF G469A (Class 2), HCT-116 BRAF−/− cells, observed Dmax relative to DMSO control

CCCS(=O)(=O)Nc1cccc(-c2cn(-c3ccc(C4CCN(CC5CCN(c6ccc(C7CCC(=O)NC7=O)cc6)CC5)CC4)cc3)nc2-c2ccncc2)c1F (racemic) [Compound 25, Rac-N-{3-[1-(4-{1-[(1-{4-[(3R)-2,6-dioxopiperidin-3-yl]phenyl}piperidin-4-yl)methyl]piperidin-4-yl}phenyl)-3-(pyridin-4-yl)-1H-pyrazol-4-yl]-2-fluorophenyl}propane-1-sulfonamide]
DC50 [1, 5]: > 500 nM | Dmax [1, 6]: 30 to 70% | DC50 [2, 7]: 10 to 50 nM | Dmax [2, 8]: > 70% | DC50 [3, 9]: 10 to 50 nM | Dmax [3, 10]: 30 to 70% | DC50 [4, 11]: > 500 nM | Dmax [4, 12]: < 30%

CCCS(=O)(=O)Nc1cccc(-c2nc(CCC3CCN(C(=O)C4CCN(C(=O)C5CCN(c6ccc(C7CCC(=O)NC7=O)cn6)CC5)CC4)CC3)sc2-c2ccnc(N)n2)c1F (racemic) [Compound 205, Rac-N-{3-[5-(2-aminopyrimidin-4-yl)-2-(2-{1-[1-(1-{5-[(3R)-2,6-dioxopiperidin-3-yl]pyridin-2-yl}piperidine-4-carbonyl)piperidine-4-carbonyl]piperidin-4-yl}ethyl)-1,3-thiazol-4-yl]-2-fluorophenyl}propane-1-sulfonamide]
DC50 [1, 5]: > 500 nM | Dmax [1, 6]: 30 to 70% | DC50 [2, 7]: < 10 nM | Dmax [2, 8]: > 70% | DC50 [3, 9]: > 500 nM | Dmax [3, 10]: 30 to 70% | DC50 [4, 11]: > 500 nM | Dmax [4, 12]: 30 to 70%

CCCS(=O)(=O)Nc1cccc(-c2nc(C3CCN(C(=O)C4(C)CCN(C(=O)C5CCN(c6ccc(C7CCC(=O)NC7=O)cn6)CC5)CC4)CC3)sc2-c2ccnc(N)n2)c1F (racemic) [Compound 197, Rac-N-{3-[5-(2-aminopyrimidin-4-yl)-2-{1-[1-(1-{5-[(3R)-2,6-dioxopiperidin-3-yl]pyridin-2-yl}piperidine-4-carbonyl)-4-methylpiperidine-4-carbonyl]piperidin-4-yl}-1,3-thiazol-4-yl]-2-fluorophenyl}propane-1-sulfonamide]
DC50 [1, 5]: < 10 nM | Dmax [1, 6]: 30 to 70% | DC50 [2, 7]: < 10 nM | Dmax [2, 8]: > 70% | DC50 [3, 9]: < 10 nM | Dmax [3, 10]: 30 to 70% | DC50 [4, 11]: 10 to 50 nM | Dmax [4, 12]: 30 to 70%

CCCS(=O)(=O)Nc1cccc(-c2cn(C3CCN(C(=O)C4CCN(CC5CCN(c6ccc(C7CCC(=O)NC7=O)cn6)CC5)CC4)CC3)nc2-c2ccncc2)c1F (racemic) [Compound 6, Rac-N-{3-[1-(1-{1-[(1-{5-[(3R)-2,6-dioxopiperidin-3-yl]pyridin-2-yl}piperidin-4-yl)methyl]piperidine-4-carbonyl}piperidin-4-yl)-3-(pyridin-4-yl)-1H-pyrazol-4-yl]-2-fluorophenyl}propane-1-sulfonamide]
DC50 [1, 5]: > 500 nM | Dmax [1, 6]: 30 to 70% | DC50 [2, 7]: 10 to 50 nM | Dmax [2, 8]: > 70% | DC50 [3, 9]: > 500 nM | Dmax [3, 10]: 30 to 70% | DC50 [4, 11]: > 500 nM | Dmax [4, 12]: < 30%

CCCS(=O)(=O)Nc1cccc(-c2nc(C(C)(C)C)sc2-c2ccnc(Nc3cnn(CC4CCN(C(=O)C[C@@H]5CCN(c6ccc(C7CCC(=O)NC7=O)cc6)C5)CC4)c3)n2)c1F (mixture of isomers) [Compound 112, N-(3-{2-tert-butyl-5-[2-({1-[(1-{2-[(3S)-1-{4-[(3RS)-2,6-dioxopiperidin-3-yl]phenyl}pyrrolidin-3-yl]acetyl}piperidin-4-yl)methyl]-1H-pyrazol-4-yl}amino)pyrimidin-4-yl]-1,3-thiazol-4-yl}-2-fluorophenyl)propane-1-sulfonamide]
DC50 [1, 5]: > 500 nM | Dmax [1, 6]: 30 to 70% | DC50 [2, 7]: < 10 nM | Dmax [2, 8]: 30 to 70% | DC50 [3, 9]: > 500 nM | Dmax [3, 10]: < 30% | DC50 [4, 11]: > 500 nM | Dmax [4, 12]: < 30%

CCCS(=O)(=O)Nc1cccc(-c2nc(C3CCN(C(=O)C4CCN(C(=O)C5CCN(c6ccc(C7CCC(=O)NC7=O)cn6)CC5)CC4)CC3)sc2-c2ccnc(N)n2)c1F (racemic) [Compound 254, Rac-N-{3-[5-(2-aminopyrimidin-4-yl)-2-{1-[1-(1-{5-[(3R)-2,6-dioxopiperidin-3-yl]pyridin-2-yl}piperidine-4-carbonyl)piperidine-4-carbonyl]piperidin-4-yl}-1,3-thiazol-4-yl]-2-fluorophenyl}propane-1-sulfonamide]
DC50 [1, 13]: < 10 nM | Dmax [1, 14]: 30 to 70% | DC50 [2, 15]: < 10 nM | Dmax [2, 16]: > 70% | DC50 [3, 17]: < 10 nM | Dmax [3, 18]: > 70% | DC50 [4, 19]: 10 to 50 nM | Dmax [4, 20]: 30 to 70%

CCCS(=O)(=O)Nc1cccc(-c2nc(C3CCN(C(=O)C4CCN(C(=O)C5CCN(c6ccc(C7CCC(=O)NC7=O)cn6)CC5)CC4)CC3)sc2-c2ccnc(N[C@H](C)CO)n2)c1F (mixture of isomers) [Compound 180, N-[3-(2-{1-[1-(1-{5-[(3RS)-2,6-dioxopiperidin-3-yl]pyridin-2-yl}piperidine-4-carbonyl)piperidine-4-carbonyl]piperidin-4-yl}-5-(2-{[(2R)-1-hydroxypropan-2-yl]amino}pyrimidin-4-yl)-1,3-thiazol-4-yl)-2-fluorophenyl]propane-1-sulfonamide]
DC50 [1, 5]: < 10 nM | Dmax [1, 6]: 30 to 70% | DC50 [2, 7]: < 10 nM | Dmax [2, 8]: > 70% | DC50 [3, 9]: < 10 nM | Dmax [3, 10]: 30 to 70% | DC50 [4, 11]: 10 to 50 nM | Dmax [4, 12]: 30 to 70%

CCN(C)S(=O)(=O)Nc1cccc(-c2nc(C(C)(C)C)sc2-c2ccnc(Nc3ccc(N4CCN(CC5CC6(C5)CN(c5ccc(C7CCC(=O)NC7=O)cn5)C6)CC4)cn3)n2)c1F (racemic) [Compound 30, Rac-(3R)-3-{6-[6-({4-[6-({4-[2-tert-butyl-4-(3-{[ethyl(methyl)sulfamoyl]amino}-2-fluorophenyl)-1,3-thiazol-5-yl]pyrimidin-2-yl}amino)pyridin-3-yl]piperazin-1-yl}methyl)-2-azaspiro[3.3]heptan-2-yl]pyridin-3-yl}piperidine-2,6-dione]
DC50 [1, 5]: < 10 nM | Dmax [1, 6]: 30 to 70% | DC50 [2, 7]: < 10 nM | Dmax [2, 8]: > 70% | DC50 [3, 9]: 10 to 50 nM | Dmax [3, 10]: 30 to 70% | DC50 [4, 11]: 10 to 50 nM | Dmax [4, 12]: 30 to 70%

C[C@@H]1CN(c2ccc(-n3cc(-c4cc(Cl)cc(NS(=O)(=O)N5CCCC5)c4F)c(-c4ccncc4)n3)c(F)c2)C[C@@H](C)N1CC1CCN(c2ccc(C3CCC(=O)NC3=O)cn2)CC1 (mixture of isomers) [Compound 382, N-(5-chloro-3-(1-(4-((3R,5R)-4-((1-(5-((RS)-2,6-dioxopiperidin-3-yl)pyridin-2-yl)piperidin-4-yl)methyl)-3,5-dimethylpiperazin-1-yl)-2-fluorophenyl)-3-(pyridin-4-yl)-1H-pyrazol-4-yl)-2-fluorophenyl)pyrrolidine-1-sulfonamide]
DC50 [1, 13]: < 10 nM | Dmax [1, 14]: > 70% | DC50 [2, 15]: < 10 nM | Dmax [2, 16]: > 70% | DC50 [3, 17]: < 10 nM | Dmax [3, 18]: > 70% | DC50 [4, 19]: 10 to 50 nM | Dmax [4, 20]: > 70%

CCCS(=O)(=O)Nc1cccc(-c2nc(C(C)(C)C)sc2-c2ccnc(NC3CC4(CCN(C(=O)CN5CCC(c6ccc(NC7CCC(=O)NC7=O)cc6)CC5)CC4)C3)n2)c1F (racemic) [Compound 131, Rac-N-[3-(2-tert-butyl-5-{2-[(7-{2-[4-(4-{[(3R)-2,6-dioxopiperidin-3-yl]amino}phenyl)piperidin-1-yl]acetyl}-7-azaspiro[3.5]nonan-2-yl)amino]pyrimidin-4-yl}-1,3-thiazol-4-yl)-2-fluorophenyl]propane-1-sulfonamide]
DC50 [1, 5]: > 500 nM | Dmax [1, 6]: < 30% | DC50 [2, 7]: 10 to 50 nM | Dmax [2, 8]: > 70% | DC50 [3, 9]: > 500 nM | Dmax [3, 10]: 30 to 70% | DC50 [4, 11]: > 500 nM | Dmax [4, 12]: < 30%
